Results from publication PMC12696353, “Structural insights into endogenous agonist selectivity of aminergic receptors from the octopamine β2 receptor” (PNAS Nexus, 2025).
Residue numbers refer to the chain shown, from its start.

Columns and labels:
[1] = target: I. scapularis octβ2R (is-octβ2R) (Ixodes scapularis, UniProt A0ACM8E5E8); experiment: cell-based; format: cell-based; settings: for Emax: AP-TGFα release
Description: (§1) The TGFα shedding assay was performed as previously described ([28]). […] The cells were transfected using lipofectamine 2000 with plasmids encoding alkaline phosphatase–tagged TGFα (AP-TGFα) (2.5 ng/mL), is-octβ2Rs (1 ng/mL), and Gαq/s (0.5 ng/mL). After 24 h, the cells were washed with phosphate-buffered saline and resuspended in Hank's balanced salt solution (HBSS) (supplemented with 5 mM HEPES [pH 7.4]). The cells (90 μL/well) were plated in a 96-well plate and incubated with 10 μL of HBSS solution containing various concentrations of compounds for 1 h at 37 °C. Following centrifugation (200 × g, 2 min), 80 μL of the supernatant was transferred to a separate 96-well plate. Subsequently, 80 µL of 2× para-nitrophenyl phosphate (pNPP) buffer (containing 10 mM pNPP in 40 mM Tris–HCl [pH 9.5], 40 mM NaCl, and 10 mM MgCl2) was added to both the supernatant and cell-containing plates. The optical density at 405 nm of both plates was measured before and after a 1 h incubation at room temperature using a microplate reader (SpectraMax iD3, Molecular Devices, San Jose, CA, United States). AP-TGFα release was calculated using the following formulas:
(§2) ΔOD405=OD450(1h)−OD405(0h)AP−TGFαinsupernatant(%)=(ΔOD405Sup/[ΔOD450Sup+ΔOD405Cell])×125AP−TGFαrelease(%)=AP−TGFαinsupernatantunderastimulatedcondition(%)−AP−TGFαinsupernatantunderavehicle−treatedcondition
(§3) where OD405 (0 h) and […] represent the OD405 before and after a 1 h incubation, respectively, and OD405Sup and OD405Cell represent the OD405 of supernatant and cell plates, respectively. For all pharmacological analyses, nonlinear regression curve fitting was performed with a 3-parameter sigmoid model (Hill coefficient = 1) using Prism 8 (GraphPad Software, La Jolla, CA, United States).

[2] = target: T1, is-octβ2R I61^1.42F mutant (Ixodes scapularis, UniProt A0ACM8E5E8, I40F); experiment: TGFα shedding assay, amitraz-resistant mutant I61^1.42F; format: cell-based; settings: Table S4
T1 sequence (A0ACM8E5E8 1-384 I40F): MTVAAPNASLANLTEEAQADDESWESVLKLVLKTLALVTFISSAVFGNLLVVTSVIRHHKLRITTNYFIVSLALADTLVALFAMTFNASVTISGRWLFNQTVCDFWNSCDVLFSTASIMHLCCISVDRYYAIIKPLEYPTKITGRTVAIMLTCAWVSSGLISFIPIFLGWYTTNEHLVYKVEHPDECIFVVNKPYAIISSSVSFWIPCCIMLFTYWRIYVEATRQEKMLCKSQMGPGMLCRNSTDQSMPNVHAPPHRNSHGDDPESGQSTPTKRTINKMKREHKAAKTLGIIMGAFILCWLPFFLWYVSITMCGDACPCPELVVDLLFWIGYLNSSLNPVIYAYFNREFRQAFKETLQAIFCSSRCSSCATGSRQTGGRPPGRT
Description: as §1, §2, §3

[3] = target: T2, is-octβ2R I62^1.43T mutant (Ixodes scapularis, UniProt A0ACM8E5E8, I41T); experiment: TGFα shedding assay, amitraz-resistant mutant I62^1.43T; format: cell-based; settings: Table S4
T2 sequence (A0ACM8E5E8 1-384 I41T): T1 sequence (A0ACM8E5E8 1-384 I40F) with F40I, I41T
Description: as §1, §2, §3

[4] = target: T3, is-octβ2R Y67^2.41S mutant (Ixodes scapularis, UniProt A0ACM8E5E8, Y67S); experiment: TGFα shedding assay, amitraz-resistant mutant Y67^2.41S; format: cell-based; settings: Table S4
T3 sequence (A0ACM8E5E8 1-384 Y67S): T1 sequence (A0ACM8E5E8 1-384 I40F) with F40I, Y67S
Description: as §1, §2, §3

[5] = target: T4, is-octβ2R N87^2.61S mutant (Ixodes scapularis, UniProt A0ACM8E5E8, N87S); experiment: TGFα shedding assay, amitraz-resistant mutant N87^2.61S; format: cell-based; settings: Table S4
T4 sequence (A0ACM8E5E8 1-384 N87S): T1 sequence (A0ACM8E5E8 1-384 I40F) with F40I, N87S
Description: as §1, §2, §3

[6] = test system: is-octβ2R D110^3.32N mutant; experiment: TGFα shedding assay, mutant D110^3.32N; format: cell-based, Ixodes scapularis; settings: Table S6
Description: as §1
(§4) ΔOD405=OD450(1h)−OD405(0h)AP−TGFαinsupernatant(%)=(ΔOD405Sup/[ΔOD450Sup+ΔOD405Cell])×125AP−TGFαrelease(%)=AP−TGFαinsupernatantunderastimulatedcondition(%)−AP−TGFαinsupernatantunderavehicle−treatedcondition […]

[7] = test system: is-octβ2R I118^3.40A mutant; experiment: TGFα shedding assay, mutant I118^3.40A; format: cell-based, Ixodes scapularis; settings: Table S6
Description: as §1, §4

[8] = test system: is-octβ2R F303^6.51A mutant; experiment: TGFα shedding assay, mutant F303^6.51A; format: cell-based, Ixodes scapularis; settings: Table S6
Description: as §1, §4

[9] = target: is-octβ2R F304^6.52A mutant (Ixodes scapularis, UniProt A0ACM8E5E8, F304A); experiment: TGFα shedding assay, mutant F304^6.52A; format: cell-based; settings: Table S6
Description: as §1, §4

[10] = HEK293, 1 h, Table S2, wild type, HEK293 cells, mean ± SEM, n = 3
[11] = logEC50, Table S2, wild type, HEK293 cells, mean ± SEM, n = 3

| SMILES | Emax ([1]; 1 h, Table S4, WT) [%] | Emax ([1]; 1 h, Table S6, WT) [%] | Emax [1, 10] [%] | EC50 ([1]; LogEC50, Table S4, WT) [nM] | EC50 [1, 11] [nM] | EC50 [2] [nM] | EC50 [3] [nM] | EC50 [4] [nM] | EC50 [5] [nM] | logEC50 [6] | logEC50 [7] | logEC50 [8] | EC50 [9] [nM] | EC50 ([1]; logEC50, Table S6, WT) [nM] | potency (EC50) relative to the other TDAs ([1]; wild type, order octopamine > tyramine > noradrenaline > dopamine) |
| --- | --- | --- | --- | --- | --- | --- | --- | --- | --- | --- | --- | --- | --- | --- | --- |
| CN/C=N/c1ccc(C)cc1C [DPMF, N-2,4-dimethylphenyl-N′-methylformamidine] | 21 ± 1 | 25 ± 0.7 | 24 ± 0.6 | 7.94 | 3.98 | 7.94 | 2 | 6.31 | 7.94 | no activity | no activity | no activity | 63.1 | – | – |
| NCC(O)c1ccc(O)cc1 (stereo not shown) [Octopamine, octopamine] | 23 ± 0.8 | 27 ± 1.5 | 27 ± 0.7 | 10 | 20 | 7.94 | 5.01 | 12.6 | 10 | no activity | no activity | no activity | 398 | 25.1 | highest potency |
